Results from publication PMC12000319, “Proton conductance by human uncoupling protein 1 is inhibited by purine and pyrimidine nucleotides” (The EMBO Journal, 2025).
Where “and” joins values, the source holds several entries; their conditions need not be identical. Equal entries are not always repeated. Where two headings read alike, the source gives them in different places. Blank lines part the entries; values can stand above or below the compound they belong to.

Legend:
UCP1 [1] = system: UCP1; design: method as in Heaton and Nicholls, 1977; Divakaruni et al, 2012; settings: whole mitochondria; ref Heaton and Nicholls, 1977; Divakaruni et al, 2012; cited from earlier work
UCP1 [2] = target: T1, UCP1 (Homo sapiens, UniProt P25874); experiment: Differential scanning fluorimetry (nanoDSF) thermal stability shift assay; assay type: binding; settings: for ΔTm at 1000 µM: read-out: thermal shift (ΔTm)
T1 construct: His8 (N, cleaved yes); Factor Xa protease cleavage site (N, cleaved yes); made in house; host or cells: Saccharomyces cerevisiae strain W303.1B
T1 sequence (P25874 1-307): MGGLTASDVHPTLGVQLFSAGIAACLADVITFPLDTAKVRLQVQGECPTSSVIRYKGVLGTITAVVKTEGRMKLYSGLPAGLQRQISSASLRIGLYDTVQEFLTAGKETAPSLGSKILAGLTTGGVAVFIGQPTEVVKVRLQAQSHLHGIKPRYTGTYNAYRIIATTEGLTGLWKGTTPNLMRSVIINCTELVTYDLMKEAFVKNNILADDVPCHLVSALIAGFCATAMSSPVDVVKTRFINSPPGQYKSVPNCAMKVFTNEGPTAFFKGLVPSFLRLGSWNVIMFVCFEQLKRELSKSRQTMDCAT

UCP1 [3] = target: T1, UCP1; experiment: Isothermal titration calorimetry of nucleotide binding; design: isotherm data point (enthalpy change per injection): unit not given here; settings: for isotherm data point (enthalpy change per injection): representative isotherm;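 on all read-outs here: purified human UCP1 in cacodylate buffer with lauryl maltose neopentyl glycol and cardiolipin, titrated with nucleotides, isotherms fitted by one-site model yielding ΔH, Kd and stoichiometry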
human DIC (SLC25A10) = target: T2, human DIC (SLC25A10) (Homo sapiens, UniProt Q9UBX3); experiment: Differential scanning fluorimetry (nanoDSF) thermal stability shift assay; assay type: binding; settings: 1 mM nucleotide, pH 6.0, single repeats (source data Fig. 4A)
T2 construct: His8 (N, cleaved yes); Factor Xa protease cleavage site (N, cleaved yes); made in house; host or cells: Saccharomyces cerevisiae protease-deficient strain BJ2186
T2 sequence (Q9UBX3 1-287): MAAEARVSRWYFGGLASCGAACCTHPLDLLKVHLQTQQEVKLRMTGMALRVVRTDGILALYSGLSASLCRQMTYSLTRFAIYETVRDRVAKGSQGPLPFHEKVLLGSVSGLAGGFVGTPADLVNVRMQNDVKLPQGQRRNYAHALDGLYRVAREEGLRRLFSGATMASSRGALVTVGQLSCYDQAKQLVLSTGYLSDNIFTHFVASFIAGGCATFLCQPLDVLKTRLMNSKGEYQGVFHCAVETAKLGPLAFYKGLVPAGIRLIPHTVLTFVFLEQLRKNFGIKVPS
Text: UCP1 is phylogenetically related to mitochondrial dicarboxylate carriers, gaining thermogenic properties as a later evolutionary development (Hughes et al, [2009]; Robinson et al, [2008]). The mitochondrial dicarboxylate carrier (DIC, SLC25A10) and oxoglutarate carrier (OGC, SLC25A11) are most closely related to UCP1 (Gaudry et al, [2019]; Hughes et al, [2009]) and share many residues involved in nucleotide binding in UCP1, such as the arginine triplet at the contact points, R92 and Q85 (Jones et al, [2024]). Given the similarity of the central cavity of UCP1, OGC and DIC, we tested whether the dicarboxylate carriers have the ability to bind nucleotides. For this purpose, we purified human DIC and OGC, and tested whether nucleotides were able to generate a thermostability shift, as observed for their physiological substrates (Pyrihová et al, [2024]). However, all tested nucleotides caused a negligible shift with both DIC or OGC at all pH values tested between 6.0 and 8.0 (Fig. 4A; Appendix Fig. S5). Thus, despite having many residues in common (Fig. 4B–D), UCP1 has evolved to have a few specific residues that allow high-affinity binding of nucleotides without a strong selection for nucleobase.
Differential scanning fluorimetry (nanoDSF) (Alexandrov et al, [2008]) was carried out with 2 µg UCP1, DIC or OGC protein (100 mM MES/HEPES, pH range 6.0–8.0, 25 mM NaCl, 1 mM TCEP, 0.01% lauryl maltose neopentyl glycol and 0.01 mg/mL tetraoleoyl cardiolipin) and, when required, 1 mM nucleotide, as indicated. The proteins have the following number of tryptophans: UCP1 (two); OGC (two); DIC (one). The samples were loaded into nanoDSF-grade standard glass capillaries. The temperature was increased by […] every minute from 25 to 95 °C, the intrinsic fluorescence was measured in a Prometheus NT.48 nanoDSF device, and the apparent Tm was calculated with the PR.ThermControl software (NanoTemper Technologies).

SMILES: Nc1ccn([C@@H]2O[C@H](COP(=O)(O)OP(=O)(O)O)[C@@H](O)[C@H]2O)c(=O)n1 [CDP]
competition with GDP binding (UCP1 [1]): unable to displace the binding of GDP

temperature shift (ΔTm) (UCP1 [2]; 1 mM nucleotide, pH 6.0, detergent-solubilised UCP1, mean of three biological repeats): 12.5 °C
ΔTm at 1000 µM (UCP1 [2]; pH 6, 1 mM nucleotide, pH 6.0, single repeats (source data Fig. 1D)): 12.3 °C
ΔTm at 1000 µM (UCP1 [2]; pH 6.5, 1 mM nucleotide, pH 6.5, single repeats (source data Fig. 1D)): 7.9 °C
ΔTm at 1000 µM (UCP1 [2]; pH 7, 1 mM nucleotide, pH 7.0, single repeats (source data Fig. 1D)): 4.4 °C
binding affinity to UCP1 (in words) (UCP1 [3]; ITC): lowest affinity
Kd (UCP1 [3]; ITC, pH 6.0, 20 °C, mean ± standard deviation of three biological repeats (Fig. 2A-E)): 4.85 ± 0.69 µM
Kd (UCP1 [3]; ITC, single biological repeats (source data Fig. 2F)): 5.47 µM and 4.96 µM and 4.11 µM
isotherm data point (enthalpy change per injection) (UCP1 [3]; Molar ratio (Nucleotide/UCP) 0.120417, pH 6.0, 20 °C): -22.2743
isotherm data point (enthalpy change per injection) (UCP1 [3]; Molar ratio (Nucleotide/UCP) 0.181226, pH 6.0, 20 °C): -21.186
isotherm data point (enthalpy change per injection) (UCP1 [3]; Molar ratio (Nucleotide/UCP) 0.242439, pH 6.0, 20 °C): -19.9722
isotherm data point (enthalpy change per injection) (UCP1 [3]; Molar ratio (Nucleotide/UCP) 0.304059, pH 6.0, 20 °C): -20.0539
isotherm data point (enthalpy change per injection) (UCP1 [3]; Molar ratio (Nucleotide/UCP) 0.366087, pH 6.0, 20 °C): -20.6988
isotherm data point (enthalpy change per injection) (UCP1 [3]; Molar ratio (Nucleotide/UCP) 0.428528, pH 6.0, 20 °C): -18.255
isotherm data point (enthalpy change per injection) (UCP1 [3]; Molar ratio (Nucleotide/UCP) 0.491383, pH 6.0, 20 °C): -16.7607
isotherm data point (enthalpy change per injection) (UCP1 [3]; Molar ratio (Nucleotide/UCP) 0.554656, pH 6.0, 20 °C): -16.5202
isotherm data point (enthalpy change per injection) (UCP1 [3]; Molar ratio (Nucleotide/UCP) 0.618348, pH 6.0, 20 °C): -14.6191
isotherm data point (enthalpy change per injection) (UCP1 [3]; Molar ratio (Nucleotide/UCP) 0.682464, pH 6.0, 20 °C): -13.3617
isotherm data point (enthalpy change per injection) (UCP1 [3]; Molar ratio (Nucleotide/UCP) 0.747006, pH 6.0, 20 °C): -10.6677
isotherm data point (enthalpy change per injection) (UCP1 [3]; Molar ratio (Nucleotide/UCP) 0.811976, pH 6.0, 20 °C): -10.8499
isotherm data point (enthalpy change per injection) (UCP1 [3]; Molar ratio (Nucleotide/UCP) 0.877378, pH 6.0, 20 °C): -10.2913
isotherm data point (enthalpy change per injection) (UCP1 [3]; Molar ratio (Nucleotide/UCP) 0.943214, pH 6.0, 20 °C): -8.027
isotherm data point (enthalpy change per injection) (UCP1 [3]; Molar ratio (Nucleotide/UCP) 1.00949, pH 6.0, 20 °C): -6.97
isotherm data point (enthalpy change per injection) (UCP1 [3]; Molar ratio (Nucleotide/UCP) 1.0762, pH 6.0, 20 °C): -6.038
isotherm data point (enthalpy change per injection) (UCP1 [3]; Molar ratio (Nucleotide/UCP) 1.14336, pH 6.0, 20 °C): -5.024
isotherm data point (enthalpy change per injection) (UCP1 [3]; Molar ratio (Nucleotide/UCP) 1.21096, pH 6.0, 20 °C): -4.446
isotherm data point (enthalpy change per injection) (UCP1 [3]; Molar ratio (Nucleotide/UCP) 1.27901, pH 6.0, 20 °C): -2.802
isotherm data point (enthalpy change per injection) (UCP1 [3]; Molar ratio (Nucleotide/UCP) 1.34751, pH 6.0, 20 °C): -2.027
isotherm data point (enthalpy change per injection) (UCP1 [3]; Molar ratio (Nucleotide/UCP) 1.41647, pH 6.0, 20 °C): -1.98
isotherm data point (enthalpy change per injection) (UCP1 [3]; Molar ratio (Nucleotide/UCP) 1.48589, pH 6.0, 20 °C): -0.1226
isotherm data point (enthalpy change per injection) (UCP1 [3]; Molar ratio (Nucleotide/UCP) 1.55577, pH 6.0, 20 °C): -0.8262
isotherm data point (enthalpy change per injection) (UCP1 [3]; Molar ratio (Nucleotide/UCP) 1.62611, pH 6.0, 20 °C): -0.604
isotherm data point (enthalpy change per injection) (UCP1 [3]; Molar ratio (Nucleotide/UCP) 1.69692, pH 6.0, 20 °C): -1.2037
isotherm data point (enthalpy change per injection) (UCP1 [3]; Molar ratio (Nucleotide/UCP) 1.76819, pH 6.0, 20 °C): -0.3877
isotherm data point (enthalpy change per injection) (UCP1 [3]; Molar ratio (Nucleotide/UCP) 1.83995, pH 6.0, 20 °C): 0.4921
isotherm data point (enthalpy change per injection) (UCP1 [3]; Molar ratio (Nucleotide/UCP) 1.91217, pH 6.0, 20 °C): -0.1525
isotherm data point (enthalpy change per injection) (UCP1 [3]; Molar ratio (Nucleotide/UCP) 1.98488, pH 6.0, 20 °C): -0.1288
change in apparent melting temperature (ΔTm) of hDIC (human DIC (SLC25A10)): 0.0
SMILES: Nc1ccn(C2OC(COP(=O)(O)OP(=O)(O)OP(=O)(O)O)C(O)C2O)c(=O)n1 (stereo not drawn) [CTP]
competition with GDP binding (UCP1 [1]): unable to displace the binding of GDP
